Values joined by “and” are separate entries in the source; they are usually repeats but may differ in a detail not shown here. Equal values may be shown once. “Also recorded” adds a separate entry of the source. No end group written: not given here.
Key:
Balb/c mice = settings: single injection in the chest region, μg amounts of protein in IFA; cited from earlier work
PBMC from RA patients [1] = assay: recognition by PBMC ([3H]thymidine incorporation, stimulation index); format: cell-based, human; settings: Table 3b, per donor (169, 455, 447, 327)
PBMC from RA patients [2] = assay: as above; format: cell-based, human
Experimental: Peripheral blood mononuclear cells (PBMC) were isolated from heparinized peripheral blood by standard centrifugation on Ficoll-Paque (Pharmacia, Uppsala, Sweden). Cells were suspended in wells of a 24 well plate in a concentration of 5×10^5 cells per ml. Cells were incubated in medium alone or in the presence of 10 or 50 μg/ml peptide antigen (YKL-39 (266-278)). Cultures were incubated for 6 days at 37° C. in a humidified atmosphere of 5% CO2. Cells were then suspended and 100 or 150 μl volumes of medium was distributed in 4-fold in wells of a 96-well roundbottomed plate. Cells were then pulsed with 0.5 μCi (1.85×10^4 Bq) [3H]thymidine ([3H]TdR) and 18 hr later incorporated radioactivity was measured. Results as shown in table 3 are expressed as stimulation indices (SI) (antigen-specific counts/background counts).

[3] = target: T1, HLA-DRB1*0401-encoded molecules (Homo sapiens, UniProt P01903+P01911, A100K/A169T/F76Y/I96L/K127E/L162R/M171V/N62H/P40V/Q125Y/R42H/S133A/S149N/S66Y/V115G/V209L/W38E); assay: competition peptide HLA-DR binding assay
T1 construct: HLA-DR4 (DRB1*0401) molecules were purified from the homozygous EBV-transformed human B lymphoblastoid cell lines Huly138IC2; endogenous in cells; host or cells: homozygous EBV-transformed human B lymphoblastoid cell line Huly138IC2

[4] = system: HC gp-39 (263-275) induced DTH response; assay: HC gp-39 (263-275)-specific DTH assay, tolerance induction by nasal application; format: in vivo, Balb/c mice; settings: for tolerance: intranasal pretreatment 50, 10 or 2 micrograms, sensibilisation and challenge with HC gp-39 (263-275)
Excerpt: FIG. 2a, 2b, 2c In vivo tolerization with HC gp-39 (263-275) or YKL-39 ([…]) • Balb/c mice were tolerized by intranasal application of 50, 10 or 2 micrograms of HC gp-39 (263-275), SEQ ID NO: 3, (FIG. 2b) or YKL-39 (266-278) (FIG. 2c) followed by immunization with HC gp-39 (263-275). Mice that were pretreated with saline or that were left untreated were included as controls (FIG. 2a).
A HC gp-39 (263-275)-specific DTH assay suitable to monitor tolerance induction with peptide antigens was developed. […] This peptide-based DTH system was used to detect modulation of the DTH response by nasal application of HC gp-39 (263-275) peptide.

[5] = system: HLA-DRB1*0401-restricted hybridomas specific for HC gp-39 (263-275) (8B12, 14G11, 20H5); assay: stimulation of HC gp-39 (263-275)-specific T-cell hybridomas (IL-2 production); format: cell-based, mouse; settings: presented by DRB1*0401 EBV-transformed B cells, 48 hr
Experimental: To test the cross reactivity of the 3 different, HC gp39-specific hybridoma cell lines with the YKL-39 or the chitotriosidase peptide, 5×10^4 hybridoma cells and 2×10^5 irradiated (12000 RAD), EBV-transformed B cells carrying the DRB1*0401 specificity were incubated in 150 μl volumes in wells of a round-bottomed microtiter plate. Peptide antigen (HC gp-39 (263-275), YKL-39 (266-278), chitotriosidase (269-282) or a control peptide) was added in 50 μl volumes to duplicate wells. Forty-eight hr later 100 μl of the culture supernatant was assayed for IL-2 production using a sandwich ELISA with Pharmingen antibodies specific for mouse IL-2.

Substance: HC gp-39: human cartilage glycoprotein-39, a protein of 362 amino acids, target autoantigen in rheumatoid arthritis
- arthritogenicity (Balb/c mice): induced a chronic joint inflammation
- SI 10 μg/ml (PBMC from RA patients [1]; 10 μg/ml antigen): 1 and 12 and 24 and 45
- SI 50 μg/ml (PBMC from RA patients [1]; 50 μg/ml antigen): 1 and 19 and 44 and 95

Substance: HSFTLASAETTVG [YKL-39 (266-278), HSFTLASAETTVG]
- recognition by PBMC (in words) (PBMC from RA patients [2]; RA patients): readily recognized
- SI 10 μg/ml (PBMC from RA patients [2]; Table 3a, per donor (RA patients), 10 μg/ml peptide, 6 days, SI = antigen-specific counts/background counts): 9 and 15 and <2 (3×) and 4 and 3 (2×) and 19
- SI 50 μg/ml (PBMC from RA patients [2]; Table 3a, per donor (RA patients), 50 μg/ml peptide, 6 days): 9 and 4 and <2 (4×) and 27 and 25 and 58
- SI 10 μg/ml (PBMC from RA patients [2]; Table 3b, per donor (169, 455, 447, 327), 10 μg/ml antigen): 1 and 6 and 27 and 20
- SI 50 μg/ml (PBMC from RA patients [2]; Table 3b, per donor (169, 455, 447, 327), 50 μg/ml antigen): 2 and 5 and 32 and 35
- responder / non-responder (PBMC from RA patients [2]; per donor, RA patients, SI >= 5 regarded positive): R (R = responder); also recorded: NR (NR = non-responder)
- binding affinity to DRB1*0401 (in words) [3]: very high affinity
- tolerance [4]: yes
- tolerance ([4]; listed as YKL-39 266-278): effective as a tolerogen
- downmodulation of the DTH response (in words) ([4]; nasal application, Balb/c mice immunised with HC gp-39 (263-275) in IFA): more enhanced downmodulation
- activation of T-cell hybridomas, IL-2 production (in words) [5]: response similar to HC gp-39 (263-275)

From patent US6964766B1, “Peptides for use in immunotherapy of autoimmune diseases” (Akzo Nobel N.V., priority 1998, dated 2005)
